This is an account of results in paper PMC4322352, “Sirtinol Inhibits Neutrophil Elastase Activity and Attenuates Lipopolysaccharide-Mediated Acute Lung Injury in Mice” (Scientific Reports, 2015).

The structures appear in SMILES notation.

This experiment concerns the target T1, human neutrophil elastase (HNE) (Homo sapiens, UniProt P08246).
T1 construct: gene ELANE
T1 sequence (P08246 30-247): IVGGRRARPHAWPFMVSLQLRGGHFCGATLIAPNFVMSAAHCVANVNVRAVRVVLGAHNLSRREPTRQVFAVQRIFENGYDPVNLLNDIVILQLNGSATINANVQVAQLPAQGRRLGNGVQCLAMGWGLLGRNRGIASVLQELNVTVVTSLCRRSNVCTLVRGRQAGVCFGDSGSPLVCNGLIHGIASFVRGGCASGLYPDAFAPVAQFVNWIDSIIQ
Description: chromogenic enzymatic assay with purified HNE, absorbance at […] nm. In kind it is biochemical.

Usually IC50 stands for the midpoint of a concentration-inhibition curve. A lower IC50 goes with greater potency in that assay.

As for `CC(NC(=O)c1ccccc1/N=C/c1c(O)ccc2ccccc12)c1ccccc1` (stereo not shown) [Sirtinol, 2-[(2-hydroxynaphthalen-1-ylmethylene)amino]-N-(1-phenethyl) benzamide], the half-inhibitory concentration (IC50) is 8.4 ± 0.53 µM.
